Test results reported in ChEMBL document CHEMBL3085759, “Structure-activity relationship (SAR) and preliminary mode of action studies of 3-substituted benzylthioquinolinium iodide as anti-opportunistic infection agents” (Eur J Med Chem, 2013).

How the values were obtained:
Pichia kudriavzevii = test: Antimicrobial activity against Candida krusei ATCC 6258 by Alamar blue method; format: functional, organism-based
Vero = test: Cytotoxicity against african green monkey Vero cells at 10 ug/ml after 48 hrs by Neutral Red dye assay; format: cell-based; conditions: chlorocebus sabaeus
Candida albicans = test: Antimicrobial activity against Candida albicans ATCC 90028 by Alamar blue method; format: functional, organism-based
Aspergillus fumigatus = test: Antimicrobial activity against Aspergillus fumigatus ATCC 204305 by Alamar blue method; format: functional, organism-based
[1] = system: Mycobacterium intracellulare; test: Antimicrobial activity against Mycobacterium intracellulare ATCC 23068 by Alamar blue method; format: functional, organism-based
Staphylococcus aureus [2] = test: Antimicrobial activity against Staphylococcus aureus ATCC 29213 by Alamar blue method; format: functional, organism-based; conditions: Staphylococcus aureus, ATCC 29213; for IC50: read-out: IC50
Staphylococcus aureus [3] = test: Antimicrobial activity against methicillin-resistant Staphylococcus aureus ATCC 33591 by Alamar blue method; format: functional, organism-based
Cryptococcus neoformans = test: Antimicrobial activity against Cryptococcus neoformans ATCC 90113 by Alamar blue method; format: functional, organism-based
Nakaseomyces glabratus = test: Antimicrobial activity against Candida glabrata by Alamar blue method; format: functional, organism-based

SMILES	IC50 (Pichia kudriavzevii) [µg/mL]	MIC (Pichia kudriavzevii) [µg/mL]	Activity (Vero)	IC50 (Candida albicans) [µg/mL]	MFC (Candida albicans) [µg/mL]	MIC (Candida albicans) [µg/mL]	IC50 (Aspergillus fumigatus) [µg/mL]	MFC (Aspergillus fumigatus) [µg/mL]	MIC (Aspergillus fumigatus) [µg/mL]	IC50 [1] [µg/mL]	MBC [1] [µg/mL]	MIC [1] [µg/mL]	MBC (Staphylococcus aureus [2]) [µg/mL]	MIC (Staphylococcus aureus [2]) [µg/mL]	IC50 (Staphylococcus aureus [2]) [µg/mL]	IC50 (Staphylococcus aureus [3]) [µg/mL]	MBC (Staphylococcus aureus [3]) [µg/mL]	MIC (Staphylococcus aureus [3]) [µg/mL]	MFC (Cryptococcus neoformans) [µg/mL]	MIC (Cryptococcus neoformans) [µg/mL]	also measured
FC(F)(F)c1ccccc1CSc1cc2ccccc2[n+](CCCCCC2CCCCC2)c1.[I-]	0.43	1.3	Non-toxic	0.97	5	2.5	3.7	10	5	3.4	5	5	1.3	0.31	0.19	0.22	1.3	0.63	1.3	0.63	IC50 (Cryptococcus neoformans): 0.42 µg/mL; IC50 (Nakaseomyces glabratus): 2.7 µg/mL; MIC (Nakaseomyces glabratus): 5 µg/mL
COc1ccc(CSc2cc3ccccc3[n+](CCCCCC3CCCCC3)c2)cc1.[I-]	0.37	0.63	Non-toxic	1.2	5	5	5.4	10	10	1.7	2.5	2.5	2.5	0.31	0.18	0.36	2.5	0.63	0.63	0.31	MFC (Pichia kudriavzevii): 1.3 µg/mL; IC50 (Cryptococcus neoformans): 0.18 µg/mL; IC50 (Nakaseomyces glabratus): 3 µg/mL; MFC (Nakaseomyces glabratus): 10 µg/mL; MIC (Nakaseomyces glabratus): 10 µg/mL
Brc1ccccc1CSc1cc2ccccc2[n+](CCCCCC2CCCCC2)c1.[I-]	0.49	1.3	Non-toxic	4	10	10	9.6	20	20	3.5	5	5	1.3	0.63	0.42	0.41	1.3	0.63	2.5	1.3	MFC (Pichia kudriavzevii): 1.3 µg/mL; IC50 (Nakaseomyces glabratus): 3.4 µg/mL; MFC (Nakaseomyces glabratus): 10 µg/mL; MIC (Nakaseomyces glabratus): 10 µg/mL
COc1ccccc1CSc1cc2ccccc2[n+](CCCCCC2CCCCC2)c1.[I-]	0.75	2.5	Non-toxic	2.8	5	5	9.8	> 20	20	3	5	5	5	0.63	0.31	0.35	5	0.63	2.5	0.63	MFC (Pichia kudriavzevii): 2.5 µg/mL; IC50 (Cryptococcus neoformans): 0.34 µg/mL; IC50 (Nakaseomyces glabratus): 8.2 µg/mL; MFC (Nakaseomyces glabratus): 20 µg/mL; MIC (Nakaseomyces glabratus): 20 µg/mL
N#Cc1ccc(CSc2cc3ccccc3[n+](CCCCCC3CCCCC3)c2)cc1.[I-]	5.7	10	Non-toxic	2.5	10	5	8.6	20	20	> 20	> 20	> 20	5	5	1.8	2.2	5	5	2.5	2.5	MFC (Pichia kudriavzevii): 10 µg/mL; IC50 (Cryptococcus neoformans): 0.81 µg/mL; IC50 (Nakaseomyces glabratus): 11 µg/mL; MFC (Nakaseomyces glabratus): 20 µg/mL; MIC (Nakaseomyces glabratus): 20 µg/mL
[I-].c1ccc(CSc2cc3ccccc3[n+](CCCCCC3CCCCC3)c2)cc1	0.71	1.3	Non-toxic	1.6	5	5	5.7	20	10	4	20	5	10	0.31	0.23	0.33	1.3	0.63	0.63	0.31	MFC (Pichia kudriavzevii): 1.3 µg/mL; IC50 (Nakaseomyces glabratus): 2.9 µg/mL; MFC (Nakaseomyces glabratus): 5 µg/mL; MIC (Nakaseomyces glabratus): 5 µg/mL
Clc1ccc(CSc2cc3ccccc3[n+](CCCCCC3CCCCC3)c2)cc1Cl.[I-]	0.3	1.3	Non-toxic	1.1	2.5	2.5	2.8	5	5	4.5	10	5	2.5	2.5	0.5	0.18	1.3	1.3	0.63	0.63	MFC (Pichia kudriavzevii): 1.3 µg/mL; IC50 (Cryptococcus neoformans): 0.45 µg/mL; IC50 (Nakaseomyces glabratus): 3 µg/mL; MFC (Nakaseomyces glabratus): 5 µg/mL; MIC (Nakaseomyces glabratus): 5 µg/mL
FC(F)(F)c1cccc(CSc2cc3ccccc3[n+](CCCCCC3CCCCC3)c2)c1.[I-]	1.4	2.5	Non-toxic	1.2	2.5	2.5	1.9	2.5	2.5	7.2	10	10	2.5	0.63	0.4	0.56	2.5	1.3	0.63	0.63	MFC (Pichia kudriavzevii): 2.5 µg/mL; IC50 (Cryptococcus neoformans): 0.28 µg/mL; IC50 (Nakaseomyces glabratus): 2.8 µg/mL; MFC (Nakaseomyces glabratus): 5 µg/mL; MIC (Nakaseomyces glabratus): 5 µg/mL
Clc1ccccc1CSc1cc2ccccc2[n+](CCCCCC2CCCCC2)c1.[I-]	0.34	2.5	Non-toxic	5.6	20	10	17	20	20	13	20	20	5	1.3	0.77	0.74	5	1.3	5	2.5	MFC (Pichia kudriavzevii): 2.5 µg/mL; IC50 (Cryptococcus neoformans): 1.5 µg/mL; IC50 (Nakaseomyces glabratus): 6 µg/mL; MFC (Nakaseomyces glabratus): 10 µg/mL; MIC (Nakaseomyces glabratus): 10 µg/mL
Fc1ccccc1CSc1cc2ccccc2[n+](CCCCCC2CCCCC2)c1.[I-]	1.4	2.5	Non-toxic	2.7	5	5	6.5	20	20	16	20	20	2.5	1.3	0.73	0.74	2.5	1.3	1.3	1.3	MFC (Pichia kudriavzevii): 2.5 µg/mL; IC50 (Cryptococcus neoformans): 0.63 µg/mL; IC50 (Nakaseomyces glabratus): 6.3 µg/mL; MFC (Nakaseomyces glabratus): 20 µg/mL; MIC (Nakaseomyces glabratus): 20 µg/mL
